Measured values: EP3064205A1, “Therapeutic use of isomeric forms of 2-(4-chlorophenyl)quinolin-4-yl)(piperidin-2-yl)methanol” (Glionova AB, priority 2015, dated 2016)
Read-outs that look alike come from different tables or passages of the source.

Legend:
Assay in all cases: 3D clonogenic assay (PDX)
Type in all cases: cell-based, human
[1] = test system: CXF 647; conditions: CXF 647, Colorectal; for IC50: Homo sapiens
Protocol: (§1) The anti-tumor efficacy of S1 in the patient-derived tumor xenograft (PDX) tumor panel was assessed, where the efficacy of S1 in PDX tumor panel in the 96-well format, in 10 concentrations in duplicate was performed. Colony formation of tumor cell suspensions in a soft-agar matrix was observed and quantified. The output is IC50 values and dose response-relationships based on number of colonies in control and treatment wells, as identified by an automated image analysis algorithm. Stock solution of S1 was prepared in 100% DMSO at 10 mM concentration (stored at -20°C) and reused for each experiment. Compound final test concentrations: Dilution series ½ i.e.: 50µM, 15, 5, 1.5, 0.5, 0.15, 0.05, 0.015, 0.005 and 0.0015.
(§2) Tumor xenografts (also referred to as patient-derived tumor xenografts) were passaged as subcutaneous xenografts in NMRI nu/nu mice. Tumor xenograft were removed from mice under sterile conditions, mechanically disaggregated and subsequently incubated with an enzyme cocktail consisting of collagenase type IV (41 U/mL), DNase I (125 U/mL), hyaluronidase type III (100 U/mL) and dispase II (1.0 U/mL) in RPMI 1640 medium at 37°C for 60 - 120 minutes. Cells were passed through sieves of 100 µm and 40 µm mesh size and washed with RPMI 1640 medium. The percentage of viable cells was determined in a Neubauer-hemocytometer using trypan blue exclusion. Aliquots of the cells were frozen down, and stored in liquid nitrogen.
(§3) The clonogenic assay test was carried out in 96 well plate format. For each test a frozen aliquot of tumor cells prepared from tumor xenografts was thawed and assay plates were prepared as follows: each test well contained 3 layers of equal volume, 2 layers of semi-solid medium (bottom and top layer), and one layer of medium supernatant, with or without test compound. The bottom layer consisted of 0.05 mL/well Iscove's Modified Dulbecco's Medium (Invitrogen), supplemented with 20% (v/v) fetal calf serum (Sigma), 0.01% (w/v) gentamicin (Invitrogen) and 0.75% (w/v) agar (BD Biosciences). Tumor cells were added to 0.05 mL of the same culture medium supplemented with 0.4% (w/v) agar and plated onto the bottom layer. After 24 h, test compounds were added after serial dilution in DMSO and transfer in cell culture medium, and left on the cells for the duration of the experiment (continuous exposure, 0.05 mL drug overlay). Every dish included six untreated control wells and drug-treated groups in duplicate at 10 concentrations. Cultures were incubated at 37 °C and 7.5% CO2 in a humidified atmosphere for 8 to 13 days and monitored closely for colony growth using an inverted microscope. Within this period, ex vivo tumor growth lead to the formation of colonies with a diameter of >50 µm. At the time of maximum colony formation, counts were performed with an automatic image analysis system. 24 h prior to evaluation, vital colonies were stained with a sterile aqueous solution of 2-(4-iodophenyl)-3-(4-nitrophenyl)-5-phenyltetrazolium chloride (1 mg/mL, 100 µL/well). Sigmoidal concentration-response curves were fitted to the data points obtained for each tumor model using 4 parameter non-linear curve fit (Oncotest Warehouse Software). IC50 values are reported as relative IC50 values, being the concentration of test compound that give a response (inhibition of colony formation/viability) half way between the top and bottom plateau of the sigmoidal concentration-response curve (inflection point of the curve), or as absolute IC50 values, being the concentration of test compound at the intersection of the concentration-response curves with T/C = 50%. For calculation of mean IC50 values the geometric mean was used. Results are presented as mean graph plots or heat maps (individual IC50 values relative to the geometric mean IC50 value) over all cell lines as tested.

[2] = test system: CXF 742; conditions: CXF 742, Colorectal; for IC50: Homo sapiens
Protocol: as §1, §2, §3

[3] = test system: GXA 3044; conditions: GXA 3044, Asian Gastric; for IC50: Homo sapiens
Protocol: as §1, §2, §3

[4] = test system: HNXF 1853; conditions: HNXF 1853, Head and Neck; for IC50: Homo sapiens
Protocol: as §1, §2, §3

[5] = test system: HNXF 908; conditions: HNXF 908, Head and Neck; for IC50: Homo sapiens
Protocol: as §1, §2, §3

[6] = test system: LXFA 623; conditions: LXFA 623, Lung Adeno; for IC50: Homo sapiens
Protocol: as §1, §2, §3

[7] = test system: LXFA 983; conditions: LXFA 983, Lung Adeno; for IC50: Homo sapiens
Protocol: as §1, §2, §3

[8] = test system: LXFL 1072; conditions: LXFL 1072, Lung Large Cell; for IC50: Homo sapiens
Protocol: as §1, §2, §3

[9] = test system: OVXF 1544; conditions: OVXF 1544, Ovarian; for IC50: Homo sapiens
Protocol: as §1, §2, §3

[10] = test system: OVXF 899; conditions: OVXF 899, Ovarian; for IC50: Homo sapiens
Protocol: as §1, §2, §3

[11] = test system: PXF 537; conditions: PXF 537, Pleuramesothelioma; for IC50: Homo sapiens
Protocol: as §1, §2, §3

[12] = test system: RXF 1220; conditions: RXF 1220, Renal; for IC50: Homo sapiens
Protocol: as §1, §2, §3

For O[C@H](c1cc(-c2ccc(Cl)cc2)nc2ccccc12)[C@@H]1CCCCN1 [S1, (R)-(2-(4-chlorophenyl)quinolin-4-yl)((S)-piperidin-2-yl)methanol], which “b (bottom plateau of concentration-effect curve)” value [1] is on record?
Its value is 20.

And the “t (top plateau of concentration-effect curve)” value [1]?
The value was 97.

What about the IC50 ([1]; read-out: abs. IC50) of the same compound?
Its IC50 is 24.2 µM.

And the IC50 ([1]; read-out: rel. IC50)?
Its IC50 is 16.5 µM.

And the “b (bottom plateau of concentration-effect curve)” value [2]?
Its value is 0.

What about the “t (top plateau of concentration-effect curve)” value [2] of the same compound?
The value was 100.

And the IC50 ([2]; read-out: abs. IC50)?
The IC50 was 41.3 µM.

And the IC50 ([2]; read-out: rel. IC50)?
The IC50 was 41.3 µM.

What about the “b (bottom plateau of concentration-effect curve)” value [3] of the same compound?
The value was 15.

What about the “t (top plateau of concentration-effect curve)” value [3] of the same compound?
The value was 101.

What about the IC50 ([3]; read-out: abs. IC50) of the same compound?
The IC50 was 9.08 µM.

And the IC50 ([3]; read-out: rel. IC50)?
The IC50 was 8.95 µM.

And the “b (bottom plateau of concentration-effect curve)” value [4]?
The value was 50.

What about the “t (top plateau of concentration-effect curve)” value [4] of the same compound?
The value was 106.

What about the IC50 ([4]; read-out: abs. IC50) of the same compound?
Its IC50 is 50 µM.

What about the IC50 ([4]; read-out: rel. IC50) of the same compound?
The IC50 was 8.77 µM.

What about the “b (bottom plateau of concentration-effect curve)” value [5] of the same compound?
The value was 17.

And the “t (top plateau of concentration-effect curve)” value [5]?
The value was 90.

And the IC50 ([5]; read-out: abs. IC50)?
The IC50 was 5.19 µM.

And the IC50 ([5]; read-out: rel. IC50)?
The IC50 was 5.12 µM.

And the IC50 ([6]; read-out: abs. IC50)?
Its IC50 is 4.63 µM.

And the IC50 ([6]; read-out: rel. IC50)?
The IC50 was 4.62 µM.

And the “b (bottom plateau of concentration-effect curve)” value [6]?
The value was 10.

What about the “t (top plateau of concentration-effect curve)” value [6] of the same compound?
Its value is 92.

And the IC50 ([7]; read-out: abs. IC50)?
The IC50 was 4.81 µM.

What about the IC50 ([7]; read-out: rel. IC50) of the same compound?
Its IC50 is 4.6 µM.

What about the “b (bottom plateau of concentration-effect curve)” value [7] of the same compound?
Its value is 30.

What about the “t (top plateau of concentration-effect curve)” value [7] of the same compound?
The value was 96.

What about the IC50 ([8]; read-out: abs. IC50) of the same compound?
The IC50 was 7.6 µM.

What about the IC50 ([8]; read-out: rel. IC50) of the same compound?
Its IC50 is 7.58 µM.

And the “b (bottom plateau of concentration-effect curve)” value [8]?
Its value is 0.

And the “t (top plateau of concentration-effect curve)” value [8]?
The value was 101.

What about the IC50 ([9]; read-out: abs. IC50) of the same compound?
The IC50 was 13.5 µM.

And the IC50 ([9]; read-out: rel. IC50)?
The IC50 was 12.8 µM.

And the “b (bottom plateau of concentration-effect curve)” value [9]?
The value was 22.

And the “t (top plateau of concentration-effect curve)” value [9]?
Its value is 107.

What about the IC50 ([10]; read-out: abs. IC50) of the same compound?
Its IC50 is 6.38 µM.

And the IC50 ([10]; read-out: rel. IC50)?
Its IC50 is 6.16 µM.

And the “b (bottom plateau of concentration-effect curve)” value [10]?
The value was 18.

What about the “t (top plateau of concentration-effect curve)” value [10] of the same compound?
Its value is 100.

What about the IC50 ([11]; read-out: abs. IC50) of the same compound?
The IC50 was 8.67 µM.

What about the IC50 ([11]; read-out: rel. IC50) of the same compound?
Its IC50 is 8.63 µM.

What about the “b (bottom plateau of concentration-effect curve)” value [11] of the same compound?
The value was 24.

What about the “t (top plateau of concentration-effect curve)” value [11] of the same compound?
Its value is 80.

What about the IC50 ([12]; read-out: abs. IC50) of the same compound?
Its IC50 is 43.3 µM.

What about the IC50 ([12]; read-out: rel. IC50) of the same compound?
Its IC50 is 43.4 µM.

And the “b (bottom plateau of concentration-effect curve)” value [12]?
Its value is 0.

And the “t (top plateau of concentration-effect curve)” value [12]?
The value was 99.
